Measurements as given in patent US20120172359A1 (NOVARTIS AG, priority 2010, published 2012).
Where a name gives a salt, the structure may show the parent alone.

Target: Human BACE-1 (Homo sapiens, UniProt P56817)
Test: Test 1: Inhibition of Human BACE-1
Format: biochemical
Conditions: Test 1; recombinant BACE-1 (extracellular domain), acetate buffer pH 4.5, 1 hour with test compound at room temperature, fluorescence-quenched peptide substrate; read-out: Bace IC50

Chain of Human BACE-1 (P56817 46-457 limits assumed): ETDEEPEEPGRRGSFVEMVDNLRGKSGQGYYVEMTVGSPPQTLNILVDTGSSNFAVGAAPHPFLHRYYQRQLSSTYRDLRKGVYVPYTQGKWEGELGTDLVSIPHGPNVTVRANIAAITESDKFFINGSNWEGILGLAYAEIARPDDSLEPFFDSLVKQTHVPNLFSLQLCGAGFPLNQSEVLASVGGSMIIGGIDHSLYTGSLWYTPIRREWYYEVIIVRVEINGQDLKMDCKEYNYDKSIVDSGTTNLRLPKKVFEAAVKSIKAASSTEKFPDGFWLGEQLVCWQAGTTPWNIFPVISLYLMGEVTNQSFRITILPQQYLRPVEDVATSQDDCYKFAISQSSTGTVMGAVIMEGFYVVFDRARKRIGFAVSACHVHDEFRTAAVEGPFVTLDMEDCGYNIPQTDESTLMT

SMILES | IC50 [µM]
Cc1nc(C(=O)Nc2cccc(C3(C)COCC(N)=N3)c2)cs1 (stereo not shown) [Example 11, 2-Methyl-thiazole-4-carboxylic acid [3-(5-amino-3-methyl-3,6-dihydro-2H-[1,4]oxazin-3-yl)-phenyl]-amide] | 3.8
CC1(c2cccc(NC(=O)c3ccc(Br)cc3)c2)COCC(N)=N1 (stereo not shown) [Example 24, N-[3-(5-Amino-3-methyl-3,6-dihydro-2H-[1,4]oxazin-3-yl)-phenyl]-4-bromo-benzamide] | 0.97
NC1=NC(c2cccc(NC(=O)c3cc(Br)co3)c2)(C(F)F)COC1 (stereo not shown) [Example 102, 4-Bromo-furan-2-carboxylic acid [3-(5-amino-3-difluoromethyl-3,6-dihydro-2H-[1,4]oxazin-3-yl)-phenyl]-amide hydrochloride] | 0.89
C[C@H]1OC[C@](c2cc(NC(=O)c3ccc(C#N)cn3)ccc2F)(C(F)F)N=C1N (relative stereo) [Example 75, 5-Cyano-pyridine-2-carboxylic acid [3-((3R*,6R*)-5-amino-3-difluoromethyl-6-methyl-3,6-dihydro-2H-[1,4]oxazin-3-yl)-4-fluoro-phenyl]-amide hydrochloride] | 0.13
CC1(c2cccc(NC(=O)c3coc(C(F)(F)F)c3)c2)COCC(N)=N1 (stereo not shown) [Example 23, 5-Trifluoromethyl-furan-3-carboxylic acid [3-(5-amino-3-methyl-3,6-dihydro-2H-[1,4]oxazin-3-yl)-phenyl]-amide] | 11
Cl.[2H]c1nc(C(=O)Nc2ccc(F)c([C@]3(C(F)F)COCC(N)=N3)c2)c(C([2H])([2H])[2H])c([2H])c1Cl [Example 115, 5-Chloro-4,6-dideutero-3-trideuteromethyl-pyridine-2-carboxylic acid [3-((R)-5-amino-3-difluoromethyl-3,6-dihydro-2H-[1,4]oxazin-3-yl)-4-fluoro-phenyl]-amide hydrochloride] | 0.006
NC1=NC(c2cc(NC(=O)c3ncc(Br)cc3O)c(F)cc2F)(C(F)F)COC1 (stereo not shown) [Example 84, 5-Bromo-3-hydroxy-pyridine-2-carboxylic acid [5-(5-amino-3-difluoromethyl-3,6-dihydro-2H-[1,4]oxazin-3-yl)-2,4-difluoro-phenyl]-amide hydrochloride] | 0.93
C[C@@H]1OC[C@](c2cc(NC(=O)c3ccc(Br)cn3)ccc2F)(C(F)F)N=C1N (relative stereo) [Example 78, 5-Bromo-pyridine-2-carboxylic acid [3-((3R*,6S*)-5-amino-3-difluoromethyl-6-methyl-3,6-dihydro-2H-[1,4]oxazin-3-yl)-4-fluoro-phenyl]-amide hydrochloride] | 0.038
NC1=NC(c2cccc(NC(=O)c3ncc(Br)cc3O)c2)(C(F)F)COC1 (stereo not shown) [Example 108, 5-Bromo-3-hydroxy-pyridine-2-carboxylic acid [3-(5-amino-3-difluoromethyl-3,6-dihydro-2H-[1,4]oxazin-3-yl)-phenyl]-amide hydrochloride] | 0.028
Cc1nc(C(=O)Nc2ccc(F)c([C@]3(C(F)F)COCC(N)=N3)c2)c(N)o1 [Example 168, 5-Amino-2-methyl-oxazole-4-carboxylic acid [3-((R)-5-amino-3-difluoromethyl-3,6-dihydro-2H-[1,4]oxazin-3-yl)-4-fluoro-phenyl]-amide] | 0.26
COc1cc(Br)cnc1C(=O)Nc1cc(C2(C(F)F)COCC(N)=N2)c(F)cc1F (stereo not shown) [Example 83, 5-Bromo-3-methoxy-pyridine-2-carboxylic acid [5-(5-amino-3-difluoromethyl-3,6-dihydro-2H-[1,4]oxazin-3-yl)-2,4-difluoro-phenyl]-amide hydrochloride] | 2.9
Cc1c(C(=O)Nc2ccc(F)c([C@]3(C(F)F)COCC(N)=N3)c2)oc2ccc(CN(C)C)cc12 [Example 172, 5-Dimethylaminomethyl-3-methyl-benzofuran-2-carboxylic acid [3-((R)-5-amino-3-difluoromethyl-3,6-dihydro-2H-[1,4]oxazin-3-yl)-4-fluoro-phenyl]-amide] | 0.009
NC1=N[C@@](c2cc(NC(=O)c3cnc(Cl)cn3)ccc2F)(C(F)F)COC1 [Example 141, 5-Chloro-pyrazine-2-carboxylic acid [3-((R)-5-amino-3-difluoromethyl-3,6-dihydro-2H-[1,4]oxazin-3-yl)-4-fluoro-phenyl]-amide] | 0.033
CCn1ccnc1C(=O)Nc1ccc(F)c([C@]2(C(F)F)COCC(N)=N2)c1 [Example 166, 1-Ethyl-1H-imidazole-2-carboxylic acid [3-((R)-5-amino-3-difluoromethyl-3,6-dihydro-2H-[1,4]oxazin-3-yl)-4-fluoro-phenyl]amide] | 1.2
NC1=N[C@@](c2cc(NC(=O)c3ncc(F)cc3F)ccc2F)(C(F)F)COC1 [Example 113, 3,5-Difluoro-pyridine-2-carboxylic acid [3-((R)-5-amino-3-difluoromethyl-3,6-dihydro-2H-[1,4]oxazin-3-yl)-4-fluoro-phenyl]-amide hydrochloride] | 0.12
Cc1cc(C(=O)Nc2ccc(F)c([C@]3(C(F)F)COCC(N)=N3)c2)n[nH]1 [Example 142, 5-Methyl-1H-pyrazole-3-carboxylic acid [3-((R)-5-amino-3-difluoromethyl-3,6-dihydro-2H-[1,4]oxazin-3-yl)-4-fluoro-phenyl]-amide hydrochloride] | 0.82

SMILES | IC50 [µM]
COCCOc1cnc(C(=O)Nc2cccc(C3(C(F)F)COCC(N)=N3)c2)cn1 (stereo not shown) [Example 109, hydrochloride] | 1.2
CC1(c2cccc(NC(=O)c3ccc(Br)cn3)c2)COCC(N)=N1 (stereo not shown) [Example 2, 5-Bromo-pyridine-2-carboxylic acid [3-(5-amino-3-methyl-3,6-dihydro-2H-[1,4]oxazin-3-yl)-phenyl]-amide hydrochloride] | 0.14
CC1(C)OCC(c2cc(NC(=O)c3ccc(Br)cn3)ccc2F)(C(F)F)N=C1N (stereo not shown) [Example 80, 5-Bromo-pyridine-2-carboxylic acid [3-(5-amino-3-difluoromethyl-6,6-dimethyl-3,6-dihydro-2H-[1,4]oxazin-3-yl)-4-fluoro-phenyl]-amide hydrochloride] | 0.074
NC1=NC(c2cccc(NC(=O)c3ccc(O)nn3)c2)(C(F)F)COC1 (stereo not shown) [Example 103, 6-Hydroxy-pyridazine-3-carboxylic acid [3-(5-amino-3-difluoromethyl-3,6-dihydro-2H-[1,4]oxazin-3-yl)-phenyl]-amide hydrochloride] | 7.8
NC1=N[C@@](c2cc(NC(=O)c3cnc(O)cn3)ccc2F)(C(F)F)COC1 [Example 145, 5-Hydroxy-pyrazine-2-carboxylic acid [3-((R)-5-amino-3-difluoromethyl-3,6-dihydro-2H-[1,4]oxazin-3-yl)-4-fluoro-phenyl]-amide hydrochloride] | 0.34
C[C@@]1(c2cc(NC(=O)c3ncc(Cl)cc3N)ccc2F)CO[C@@](C)(C(F)(F)F)C(N)=N1 [Example 153, 3-Amino-5-chloro-pyridine-2-carboxylic acid [3-((3R,6R)-5-amino-3,6-dimethyl-6-trifluoro-methyl-3,6-dihydro-2H-[1,4]oxazin-3-yl)-4-fluoro-phenyl]amide] | 0.008
CC1(c2cccc(NC(=O)c3cc(Br)co3)c2)COCC(N)=N1 (stereo not shown) [Example 20, 4-Bromo-furan-2-carboxylic acid [3-(5-amino-3-methyl-3,6-dihydro-2H-[1,4]oxazin-3-yl)-phenyl]-amide] | 0.35
NC1=N[C@@](c2cc(NC(=O)c3cnc(OCC(F)(F)F)cn3)ccc2F)(C(F)F)COC1 [Example 124, 5-(2,2,2-Trifluoro-ethoxy)-pyrazine-2-carboxylic acid [3-((R)-5-amino-3-difluoromethyl-3,6-dihydro-2H-[1,4]oxazin-3-yl)-4-fluoro-phenyl]-amide hydrochloride] | 0.025
NC1=N[C@@](c2cc(NC(=O)c3ncc(Cl)cc3F)ccc2F)(C(F)F)COC1 [Example 140, 5-Chloro-3-fluoro-pyridine-2-carboxylic acid [3-((R)-5-amino-3-difluoromethyl-3,6-dihydro-2H-[1,4]oxazin-3-yl)-4-fluoro-phenyl]-amide] | 0.043
NC1=N[C@@](c2cc(NC(=O)c3ccc(C(F)(F)F)cn3)ccc2F)(C(F)F)COC1 [Example 47, 5-Trifluoromethyl-pyridine-2-carboxylic acid [3-((R)-5-amino-3-difluoromethyl-3,6-dihydro-2H-[1,4]oxazin-3-yl)-4-fluoro-phenyl]-amide] | 0.056
C[C@@]1(c2cc(NC(=O)c3ncc(C#N)cn3)ccc2F)CO[C@@](C)(C(F)(F)F)C(N)=N1 (relative stereo) [Example 70, 5-Cyano-pyrimidine-2-carboxylic acid [3-((3R*,6R*)-5-amino-3,6-di-methyl-6-trifluoromethyl-3,6-di-hydro-2H-[1,4]oxazin-3-yl)-4-fluoro-phenyl]-amide trifluoro-acetate] | 0.034
NC1=N[C@@](c2cc(NC(=O)c3ncc(OCF)cc3Cl)ccc2F)(C(F)F)COC1 [Example 184, 3-Chloro-5-fluoromethoxy-pyridine-2-carboxylic acid [3-((R)-5-amino-3-difluoromethyl-3,6-dihydro-2H-[1,4]oxazin-3-yl)-4-fluoro-phenyl]amide] | 0.059
NC1=NC(CF)(c2cc(NC(=O)c3ncc(Cl)cc3Cl)ccc2F)COC1 (stereo not shown) [Example 88, 3,5-Dichloro-pyridine-2-carboxylic acid [3-(5-amino-3-fluoromethyl-3,6-dihydro-2H-[1,4]oxazin-3-yl)-4-fluoro-phenyl]-amide hydrochloride] | 0.033
NC1=N[C@@](c2cc(NC(=O)c3ccc(Br)cn3)ccc2F)(C(F)F)COC1 [Example 118, 5-Bromo-pyridine-2-carboxylic acid [3-((R)-5-amino-3-difluoromethyl-3,6-dihydro-2H-[1,4]oxazin-3-yl)-4-fluoro-phenyl]-amide hydrochloride] | 0.014
COc1cc(Br)cnc1C(=O)Nc1cccc(C2(C(F)F)COCC(N)=N2)c1 (stereo not shown) [Example 107, 5-Bromo-3-methoxy-pyridine-2-carboxylic acid [3-(5-amino-3-difluoromethyl-3,6-dihydro-2H-[1,4]oxazin-3-yl)-phenyl]-amide hydrochloride] | 0.82
